Like-named read-outs stand apart in the source and are kept apart here.
Columns and labels:
[1] = biological target: CDK7/cyclinH/MAT1 trimeric complex (Homo sapiens (Human), UniProt P50613); experiment: In vitro CDK7 assay, potency of irreversible covalent inhibitors (kinact/KI)
[2] = test system: RNA polymerase II Serine 5 phosphorylation (CDK7) in A549 cells
Excerpt: To evaluate inhibition of CDK7 kinase activity, a 384-well automated imaging assay was used. This assay detects Serine 5 phosphorylation on a unique heptapeptide sequence in the C-terminal domain of Rpb1 subunit of RNA polymerase II, the downstream substrate of CDK7. This heptapeptide sequence is repeated up to 52 times in the CTD of Rpb1.
RNA Polymerase II Serine 5 phosphorylation was detected using a specific rabbit Phospho-Rpb1 CTD (Ser5) antibody. A549 adenocarcinoma human alveolar basal epithelial cells were seeded in 20 μl medium (DMEM supplemented with 1% Fetal Bovine Serum (heat inactivated 30′ 56° C.), 2 mM L-glutamine, 50 U/ml penicillin 50 μg/ml streptomycin, 1 mM sodium pyruvate and 50 mM hepes) at 1000 cells/well and cultured in poly-D-lysine coated μclear 384 black plates for 20 hours at 37° C. and 5% CO2.
After incubation cells were challenged with compound for 3 hours at 37° C. and 5% CO2. DMSO was used as high control and as low control 10 μM of the following reference compound was used:
40 nl of test compounds and controls were spotted in cell plates using Echo Liquid Handler (Echo 550, Labcyte). Incubation was followed by 20 minutes fixation with 20 μl 10% formaldehyde at room temperature. Medium/formaldehyde solution was removed, plates were washed 3 times with 30 μl D-PBS (w/o Ca^2+ and Ma^2+) and permeabilization was done by adding 20 μl ice cold methanol for 20 minutes. Cells were washed again 3 times with 30 μl D-PBS and 20 μl blocking buffer (25 ml fetal bovine serum in 500 ml D-PBS) was added for 1 hour.
After removing blocking buffer 20 μl 1/1000 primary antibody rabbit Phospho-Rpb1 CTD (Ser5) antibody was added which binds to the phosphorylated Serine5 of the heptapeptide sequences in the CTD of Rpb1. […] Last, plates were washed 2 times with 30 μl D-PBS and wells were filled with 40 μL D-PBS, plates were sealed (Thermowell sealing tape) and stored at 4° C. until reading. Plates were read with Opera Phenix (Perkin Elmer) with 10× air objective. Data were calculated and analyzed in Phaedra.
IC50 values were calculated using the following formula
Average value of all HC's and all LC's are used for normalizations.
% Effect=100−(sample-LC)/(HC-LC)×100
% Control=(sample/HC)×100
From this an IC50 value can be obtained. An estimate of the slope of the plot in terms of the Hill coefficient is also obtained.

[3] = test system: RNA polymerase II Serine 5 phosphorylation in A549 cells overexpressing CDK7 mutant (C312S); experiment: Imaging-based cellular RNA PolII Ser5 phosphorylation assay in A549 cells overexpressing CDK7-mutant (C312S); type: cell-based, human; settings: Homo sapiens, A549, A549 cells overexpressing CDK7 mutant (C312S); read-out: CDK7_ A549 mutant hCDK7(pIC50) (converted)
Procedure: Data were calculated and analyzed in Phaedra.
From this an IC50 value can be obtained.
In parallel this assay was performed in A549 cells overexpressing CDK7-mutant (C312S) to evaluate the effect of the covalent bond on potency and to screen for potential off-target effects. Mutation of Cysteine to Serine (C312S), a less nucleophilic amino acid, prevents CDK7 inhibitors from covalently binding to CDK7 and from inhibiting CDK7 activity in an irreversible manner. A stably transduced A549 cell pool was generated that overexpresses CDK7 mutant (C312S), but also expresses endogenous CDK7-WT. Covalent binders targeting the cysteine at position 312 will show a shift in potency in A549 cells overexpressing mutant C312S CDK7.

[4] = CDK7 (20 nM enz.) (KI, μM), 20 nM enz.
[5] = read-out: CDK7 (20 nM enz.) (kinact, s^−1), 20 nM enz.
[6] = read-out: CDK7 (20 nM enz.) (kinact/ KI, M^−1*s^−1), 20 nM enz.

CDK7/cyclinH/MAT1 trimeric complex, sequence (P50613 whole entry): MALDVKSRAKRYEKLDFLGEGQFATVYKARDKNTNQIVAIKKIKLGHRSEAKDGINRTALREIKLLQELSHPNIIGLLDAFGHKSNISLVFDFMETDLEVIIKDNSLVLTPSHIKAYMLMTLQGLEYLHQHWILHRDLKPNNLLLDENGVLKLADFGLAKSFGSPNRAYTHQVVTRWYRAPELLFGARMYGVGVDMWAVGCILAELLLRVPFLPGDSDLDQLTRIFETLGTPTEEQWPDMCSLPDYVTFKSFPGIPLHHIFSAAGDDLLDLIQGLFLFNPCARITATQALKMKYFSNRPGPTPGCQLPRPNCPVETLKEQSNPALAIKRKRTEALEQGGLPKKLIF
CDK7/cyclinH/MAT1 trimeric complex, sequence (P51946 whole entry partner): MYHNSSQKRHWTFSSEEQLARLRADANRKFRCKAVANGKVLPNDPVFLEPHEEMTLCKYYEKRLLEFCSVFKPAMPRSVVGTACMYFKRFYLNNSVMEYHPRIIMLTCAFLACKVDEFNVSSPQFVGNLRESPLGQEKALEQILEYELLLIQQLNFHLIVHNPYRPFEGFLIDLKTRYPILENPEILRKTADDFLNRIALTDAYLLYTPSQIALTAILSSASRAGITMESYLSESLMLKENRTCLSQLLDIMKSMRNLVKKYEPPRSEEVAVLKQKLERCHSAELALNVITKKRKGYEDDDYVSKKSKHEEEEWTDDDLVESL
CDK7/cyclinH/MAT1 trimeric complex, sequence (P51948 whole entry partner): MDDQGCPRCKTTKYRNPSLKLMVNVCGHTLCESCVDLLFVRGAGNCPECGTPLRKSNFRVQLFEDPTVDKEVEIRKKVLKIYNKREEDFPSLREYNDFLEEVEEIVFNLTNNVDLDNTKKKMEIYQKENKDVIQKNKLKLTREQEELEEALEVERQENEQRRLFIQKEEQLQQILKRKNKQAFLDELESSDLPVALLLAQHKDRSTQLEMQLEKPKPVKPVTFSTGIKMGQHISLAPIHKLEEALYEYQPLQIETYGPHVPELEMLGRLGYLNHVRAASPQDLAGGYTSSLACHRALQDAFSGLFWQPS

Compound	Ki ([1]; CDK7 (KI(μM)), Table B)	kinact ([1]; read-out: CDK7 (kinact, s^−1), Table B)	kinact/KI ([1]; read-out: CDK7 (kinact/KI, M^−1*s^−1), Table B)	IC50 [2]	IC50 [3]	Ki [1, 4]	kinact [1, 5]	kinact/KI [1, 6]
C=CC(=O)N1CC(N2CC[C@H](c3ccc4c(c3)Nc3ncnc(N5CCOCC5)c3CO4)C2)C1 (single isomer, unassigned) [compound 9]	0.72 µM	0.000216 s⁻¹	306 M⁻¹ s⁻¹	2.09 µM	> 10 µM	–	–	–
C=CC(=O)N1CC[C@H](N2CCC(c3cc(F)c4c(c3)Nc3ncnc(N5CCOCC5)c3CO4)CC2)C1 (single isomer, unassigned) [compound 50]	–	–	–	0.2 µM	> 10 µM	0.302 µM	7.72e-05 s⁻¹	256 M⁻¹ s⁻¹
C=CC(=O)N1CC[C@@H](N2CCC(c3cc(F)c4c(c3)Nc3ncnc(N5CCOCC5)c3CO4)CC2)C1 (single isomer, unassigned) [compound 51]	–	–	–	0.324 µM	> 10 µM	0.643 µM	8.79e-05 s⁻¹	137 M⁻¹ s⁻¹
C=CC(=O)N1CC[C@H](N2CC(c3cc(F)c4c(c3)Nc3ncnc(N5CCOCC5)c3CO4)C2)C1 (single isomer, unassigned) [compound 54]	–	–	–	1.05 µM	> 10 µM	1.36 µM	7.77e-05 s⁻¹	57.2 M⁻¹ s⁻¹
C=CC(=O)N1CC[C@@H](N2CC(c3cc(F)c4c(c3)Nc3ncnc(N5CCOCC5)c3CO4)C2)C1 (single isomer, unassigned) [compound 55]	–	–	–	0.933 µM	> 10 µM	1.04 µM	6.83e-05 s⁻¹	65.7 M⁻¹ s⁻¹
C=CC(=O)N1CC(N2CCC(c3ccc4c(c3)Nc3ncnc(N5CCOCC5)c3[C@@H](C)O4)CC2)C1 (single isomer, unassigned) [compound 56]	–	–	–	3.24 µM	> 10 µM	4.2 µM	8.48e-05 s⁻¹	20.2 M⁻¹ s⁻¹
C=CC(=O)N1CC(N2CCC(c3ccc4c(c3)Nc3ncnc(N5CCOCC5)c3[C@H](C)O4)CC2)C1 (single isomer, unassigned) [compound 57]	–	–	–	0.263 µM	> 10 µM	0.0876 µM	7.7e-05 s⁻¹	879 M⁻¹ s⁻¹
[2H]C([2H])([2H])C#CC(=O)N1CC(N2CCC(c3cc(C)c4c(c3)Nc3ncnc(N5CCS(=O)(=O)CC5)c3[C@@H](C)O4)CC2)C1 [compound 164]	–	–	–	0.0537 µM	> 10 µM	–	–	–
Cc1cc(C2CCN(C3CN(C(=O)C#CCN(C)C)C3)CC2)cc2c1O[C@H](C)c1c(ncnc1N1CCS(=O)(=O)CC1)N2 [compound 169]	–	–	–	< 0.00245 µM	4.17 µM	–	–	–
CC#CC(=O)N1CCC([C@H]2CC[C@H](c3cc(C)c4c(c3)Nc3ncnc(N5CCS(=O)(=O)CC5)c3[C@@H](C)O4)CC2)CC1 [compound 172]	–	–	–	0.355 µM	> 10 µM	–	–	–
CC#CC(=O)N1CCC([C@H]2CC[C@@H](c3cc(C)c4c(c3)Nc3ncnc(N5CCS(=O)(=O)CC5)c3[C@@H](C)O4)CC2)CC1 [compound 173]	–	–	–	> 10 µM	> 10 µM	–	–	–
Cc1cc(C2CCN(C3CN(C(=O)C#CC(C)C)C3)CC2)cc2c1O[C@H](C)c1c(ncnc1N1CCS(=O)(=O)CC1)N2 [compound 174]	–	–	–	0.0589 µM	7.76 µM	–	–	–
Cc1cc(C2CCN(C3CN(C(=O)C#CCCN4CCOCC4)C3)CC2)cc2c1O[C@H](C)c1c(ncnc1N1CCS(=O)(=O)CC1)N2 [compound 175]	–	–	–	~0.0263 µM	~10 µM	–	–	–
Cc1cc(C2CCN(C3CN(C(=O)C#CCCN(C)C)C3)CC2)cc2c1O[C@H](C)c1c(ncnc1N1CCS(=O)(=O)CC1)N2 [compound 178]	–	–	–	< 0.00977 µM	5.75 µM	–	–	–
[2H]C([2H])([2H])C#CC(=O)N1CC(C)(N2CCC(c3cc(C)c4c(c3)Nc3ncnc(N5CCS(=O)(=O)CC5)c3[C@@H](C)O4)CC2)C1 [compound 179]	–	–	–	~0.0562 µM	> 10 µM	–	–	–
Cc1cc(C2CCN(C3(C)CN(C(=O)C#CCCN4CCOCC4)C3)CC2)cc2c1O[C@H](C)c1c(ncnc1N1CCS(=O)(=O)CC1)N2 [compound 180]	–	–	–	< 0.00977 µM	> 10 µM	–	–	–
Cc1cc(C2CCN(C3(C)CN(C(=O)C#CCN(C)C)C3)CC2)cc2c1O[C@H](C)c1c(ncnc1N1CCS(=O)(=O)CC1)N2 [compound 181]	–	–	–	0.0417 µM	2.34 µM	–	–	–
